Test system: Aspergillus niger pectin lyase B (PLB), purified from pelB transformant B13, SEQ ID NO: 6
Settings: EDTA 3 mM final concentration in the reaction mixture; enzyme reactivated by excess of Ca2+ ions
Protocol: Both highly esterified pectin (d.e. 94%) as well as pectins with lower degree of esterification like Brown Ribbon apple pectin (d.e. 72.8%; Obipektin AG Bischoffzell) can be used as substrate.
These values are determined according to the procedure of van Houdenhoven (ref. 18) using a Mc Ilvaine buffer of pH 8.0 (μ=0.5).

O=C([O-])CN(CCN(CC(=O)O)CC(=O)O)CC(=O)[O-].[Na+].[Na+] [EDTA, ethylenediaminetetraacetic acid disodium salt]
inhibition of the pectin lyase reaction by EDTA: inhibited

From patent US5447862A, “Pectin lyase genes of aspergillus niger” (Ciba-Geigy Corporation, priority 1987, dated 1995)
